Test results: patent publication US20110053916A1 (Vertex Pharmaceuticals Incorporated, priority 2009, published 2011)

Tests used:
PknB = target: T1, PknB (Mycobacterium tuberculosis, UniProt P9WI81); assay: biochemical; set-up: species or system M. tuberculosis; settings: 3 nM PknB, 6 uM GarA, 3 μM ATP, 30 min, competitive tight-binding fit, several symbols in a cell = repeat determinations; for Ki: read-out: Ki Values
T1 construct: made in house

[1] = test system: Mycobacterium tuberculosis H37Ra; assay: Mycobacterium tuberculosis growth inhibition assay (microtiter dilution, resazurin reduction); format: cell-based; settings: 7H9 broth, 9 days + 24 h resazurin, lowest concentration inhibiting resazurin reduction by >70%, several symbols in a cell = repeat determinations
Description: Compounds were screened for their ability to inhibit the growth of Mycobacterium tuberculosis H37Ra using a standard microtiter dilution method with reduction of the dye resazurin as an indicator of growth. The growth assay was carried out in standard Mycobacterium liquid growth medium, 7H9Broth (BD Biosciences, Franklin Lakes, N.J.) supplemented with 10% ADC enrichment (BD Biosciences, Franklin Lakes, N.J.). The medium was inoculate with ˜1×10^6 cells/milliliter of Mycobacterium tuberculosis H37Ra grown on a the surface of a growth medium solid medium (7H11 agar [BD Biosciences, Franklin Lakes, N.J.] supplemented with 10% OADC enrichment [BD Biosciences, Franklin Lakes, N.J.]).
Two-fold serial dilutions (either 7 or 11-step series) of test compounds in DMSO were dispensed into 96-well assay plates (sterile, black sided, clear bottom wells) in a volume of 1 microliter. One microliter of DMSO was dispensed into a control well at the end of each series. One-hundred microliters of the bacterial cell suspension in growth medium was dispensed into each test well containing a DSMO solution of compound. The assay plates were covered with a fitted lid and incubated at 37° C. in a humidified chamber for 9 days. On the ninth day 30 microliters of a 0.01% solution of resazurin (Sigma Chemical Co., St. Louis, Mo.) in distilled water was added to each well and the baseline fluorescence of resazurin was determined by measuring well fluorescence at an excitation wavelength of 492 nm and an emission wavelength of 595 nm on a Spectrafluor Plus (Tecan, Durham, N.C.) instrument. The assay plates were returned to the incubation chamber for 24 hours. After 24 hours, the fluorescence of the wells (resulting from the reduction of resazurin dye) was measured at an excitation wavelength of 492 nm and an emission wavelength of 595 nm on the Spectrafluor Plus instrument. The minimum inhibitory concentration (MIC) was called as the lowest concentration of compound that inhibited the reduction of resazurin by >70%, as compared to the DMSO (untreated) control wells. MIC values are represented as the following values: • A* <1.6 μM • A 1.6 μM<12.5 μM • B** 12.5 μM-25.0 μM • B* 25.0 μM-50.0 μM • B 50.0 μM-100.0 μM • C >100.0 μM

T1 sequence (P9WI81 whole entry): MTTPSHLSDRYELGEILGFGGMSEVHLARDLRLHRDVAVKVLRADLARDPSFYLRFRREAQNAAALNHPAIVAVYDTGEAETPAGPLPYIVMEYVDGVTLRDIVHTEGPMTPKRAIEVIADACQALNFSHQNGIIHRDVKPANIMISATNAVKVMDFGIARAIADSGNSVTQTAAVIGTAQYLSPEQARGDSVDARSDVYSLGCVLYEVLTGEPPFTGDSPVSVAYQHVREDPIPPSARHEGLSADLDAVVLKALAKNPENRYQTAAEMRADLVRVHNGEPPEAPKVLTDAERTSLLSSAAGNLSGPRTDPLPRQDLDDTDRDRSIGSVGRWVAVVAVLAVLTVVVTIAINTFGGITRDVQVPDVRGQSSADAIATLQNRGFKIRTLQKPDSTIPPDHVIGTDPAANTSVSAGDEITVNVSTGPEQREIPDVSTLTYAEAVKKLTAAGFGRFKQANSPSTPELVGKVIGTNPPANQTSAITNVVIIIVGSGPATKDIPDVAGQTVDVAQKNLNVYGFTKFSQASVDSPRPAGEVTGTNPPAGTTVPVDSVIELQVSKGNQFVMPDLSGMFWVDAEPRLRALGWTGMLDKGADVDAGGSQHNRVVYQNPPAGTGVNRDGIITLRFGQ

SMILES	Ki Values (PknB)	MIC values [1]	Ki (PknB) [nM]
C[C@@H](O)c1ccc(-c2ncc(Cl)c(Nc3cc(C4CC4)[nH]n3)n2)s1 (stereo in doubt) [Compound 133, 1-[5-[5-chloro-4-[(5-cyclopropyl-1H-pyrazol-3-yl)amino]-pyrimidin-2-yl]-2-thienyl]ethanol]	A**, A*	B++	
CC(O)c1ccc(-c2ncc(F)c(Nc3cc(C4CC4)[nH]n3)n2)s1 (stereo in doubt) [Compound 144, (S)-1-(5-(4-(5-cyclopropyl-1H-pyrazol-3-ylamino)-5-fluoropyrimidin-2-yl)thiophen-2yl)ethanol]		B++	10 to 50
CC(O)c1ccc(-c2ncc(F)c(Nc3cc(C4CC4)[nH]n3)n2)s1 (stereo in doubt) [Compound 147, (R)-1-(5-(4-(5-cyclopropyl-1H-pyrazol-3-ylamino)-5-fluoropyrimidin-2-yl)thiophen-2-yl)ethanol]		B++	10 to 50
C#Cc1cnc(-c2ccc([C@@H](O)CC)s2)nc1Nc1cc(C2CC2)[nH]n1 (stereo in doubt) [Compound 199, 1-[5-[4-[(5-cyclopropyl-1H-pyrazol-3-yl)amino]-5-ethynyl-pyrimidin-2-yl]-2-thienyl]propan-1-ol]	A**, A*	B+	
N#CCc1ccc(Nc2nccc(Nc3cc(C4CC4)[nH]n3)n2)cc1 [Compound 1, 2-(4-(4-(5-cyclopropyl-1H-pyrazol-3-ylamino)pyrimidin-2-ylamino)phenyl)acetonitrile]		BM, B	10 to 50
NS(=O)(=O)c1ccc(Nc2nccc(Nc3cc(C4CC4)[nH]n3)n2)cc1 [Compound 12, 4-(4-(5-cyclopropyl-1H-pyrazol-3-ylamino)pyrimidin-2-ylamino)benzene sulfonamide]		B+	1 to 10
C#Cc1cnc(-c2ccccc2)nc1Nc1cc(C2CC2)[nH]n1 [Compound 14, N-(5-cyclopropyl-1H-pyrazol-3-yl)-5-ethynyl-2-phenylpyrimidin-4-amine]	A*, A	B+, B	
N#CCc1ccc(-c2ncc(Cl)c(Nc3cc(C4CC4)[nH]n3)n2)cc1 [Compound 18, 2-(4-(5-chloro-4-(5-cyclopropyl-1H-pyrazol-3-ylamino)pyrimidin-2-yl)phenyl)acetonitrile]	A**, A*	B, B, C	
N#CCc1ccc(-c2ncc(F)c(Nc3cc(C4CC4)[nH]n3)n2)cc1 [Compound 19, 2-(4-(4-(5-cyclopropyl-1H-pyrazol-3-ylamino)-5-fluoropyrimidin-2-yl)phenyl)acetonitrile]		B, B, C, C	1 to 10
C=C(Cl)c1cnc(-c2ccccc2)nc1Nc1cc(C2CC2)[nH]n1 [Compound 21, 5-(1-chlorovinyl)-N-(5-cyclopropyl-1H-pyrazol-3-yl)-2-phenyl-pyrimidin-4-amine]		B+, B, B	500 to 1000
OCc1ccc(-c2ncc(Cl)c(Nc3cc(C4CC4)[nH]n3)n2)s1 [Compound 25, [5-[5-chloro-4-[(5-cyclopropyl-1H-pyrazol-3-yl)amino]-pyrimidin-2-yl]-2-thienyl]methanol]		B+	10 to 50
OCc1ccc(-c2ncc(F)c(Nc3cc(C4CC4)[nH]n3)n2)s1 [Compound 26, (5-(4-(5-cyclopropyl-1H-pyrazol-3-ylamino)-5-fluoropyrimidin-2-yl)thiophen-2-yl)methanol]		B+	10 to 50
Cc1cnc(-c2ccc(Cl)c(C(N)=O)c2)nc1Nc1cc(C2CC2)[nH]n1 [Compound 32, 2-chloro-5-[4-[(5-cyclopropyl-1H-pyrazol-3-yl)amino]-5-methyl-pyrimidin-2-yl]-benzamide]		B+	50 to 100
CNS(=O)(=O)c1ccc(-c2ncc(C)c(Nc3cc(C4CC4)[nH]n3)n2)s1 [Compound 33, 5-[4-[(5-cyclopropyl-1H-pyrazol-3-yl)amino]-5-methyl-pyrimidin-2-yl]-N-methyl-thiophene-2-sulfonamide]		B+	10 to 50
Cc1cnc(-c2ccc(CO)s2)nc1Nc1cc(C2CC2)[nH]n1 [Compound 36, [5-[4-[(5-cyclopropyl-1H-pyrazol-3-yl)amino]-5-methyl-pyrimidin-2-yl]-2-thienyl]methanol]		B++, B+	50 to 100
CNS(=O)(=O)c1ccc(-c2ncc(Cl)c(Nc3cc(C4CC4)[nH]n3)n2)s1 [Compound 37, 5-[5-chloro-4-[(5-cyclopropyl-1H-pyrazol-3-yl)amino]-pyrimidin-2-yl]-N-methyl-thiophene-2-sulfonamide]		B+	1 to 10
Fc1cnc(-c2cccs2)nc1Nc1cc(C2CC2)[nH]n1 [Compound 41, N-(5-cyclopropyl-1H-pyrazol-3-yl)-5-fluoro-2-(thiophen-2-yl)pyrimidin-4-amine]		B+	10 to 50
CNS(=O)(=O)c1ccc(-c2ncc(F)c(Nc3cc(C4CC4)[nH]n3)n2)s1 [Compound 43, 5-[4-[(5-cyclopropyl-1H-pyrazol-3-yl)amino]-5-fluoro-pyrimidin-2-yl]-N-methyl-thiophene-2-sulfonamide]		B++	1 to 10
NC(=O)c1cc(-c2nccc(Nc3cc(C4CC4)[nH]n3)n2)ccc1Cl [Compound 51, 2-chloro-5-[4-[(5-cyclopropyl-1H-pyrazol-3-yl)amino]pyrimidin-2-yl]-benzamide]		B++	50 to 100
OC/C=C/c1cnc(-c2ccccc2)nc1Nc1cc(C2CC2)[nH]n1 [Compound 53, (E)-3-(4-(5-cyclopropyl-1H-pyrazol-3-ylamino)-2-phenylpyrimidin-5-yl)prop-2-en-1-ol]	A, B**, B**	B+	
O=C(O)c1cccc(Nc2nccc(Nc3cc(C4CC4)n[nH]3)n2)c1 [Compound 63, 3-[[4-[(5-cyclopropyl-2H-pyrazol-3-yl)amino]pyrimidin-2-yl]amino]benzoic acid]		B+	> 4000
CCCc1cnc(N2CCCCC2)nc1Nc1cc(C2CC2)[nH]n1 [Compound 66, N-(5-cyclopropyl-1H-pyrazol-3-yl)-2-(1-piperidyl)-5-propyl-pyrimidin-4-amine]		B+	1000 to 2000
COc1cnc(N2CCN(C)CC2)nc1Nc1cc(C2CC2)[nH]n1 [Compound 67, N-(5-cyclopropyl-1H-pyrazol-3-yl)-5-methoxy-2-(4-methylpiperazin-1-yl)-pyrimidin-4-amine]		A+	10 to 50
CN(C)S(=O)(=O)c1ccc(-c2ncc(Cl)c(Nc3cc(C4CC4)[nH]n3)n2)s1 [Compound 74, 5-[5-chloro-4-[(5-cyclopropyl-1H-pyrazol-3-yl)amino]-pyrimidin-2-yl]-N,N-dimethyl-thiophene-2-sulfonamide]		A, B++, C	1 to 10
O=C(O)c1ccc(Nc2ncc(Cl)c(Nc3cc(C4CC4)[nH]n3)n2)cc1 [Compound 77, 4-[[5-chloro-4-[(5-cyclopropyl-1H-pyrazol-3-yl)amino]-pyrimidin-2-yl]amino]benzoic acid]		B, C	100 to 500
CC(C)(C)NS(=O)(=O)c1ccc(-c2ncc(CCO)c(Nc3cc(C4CC4)[nH]n3)n2)s1 [Compound 228, 5-[4-[(5-cyclopropyl-1H-pyrazol-3-yl)amino]-5-(2-hydroxyethyl)pyrimidin-2-yl]-N-tert-butyl-thiophene-2-sulfonamide]		B+	
Cc1cnc(-c2ccc(C(O)CO)s2)nc1Nc1cc(C2CC2)[nH]n1 (stereo not drawn) [Compound 326, 1-[5-[4-[(5-cyclopropyl-1H-pyrazol-3-yl)amino]-5-methyl-pyrimidin-2-yl]-2-thienyl]ethane-1,2-diol]			10 to 50
OCC(O)c1ccc(-c2ncc(Cl)c(Nc3cc(C4CC4)[nH]n3)n2)s1 (stereo not drawn) [Compound 327, 1-[5-[5-chloro-4-[(5-cyclopropyl-1H-pyrazol-3-yl)amino]-pyrimidin-2-yl]-2-thienyl]ethane-1,2-diol]			10 to 50
NC(=O)c1ccc(-c2ncc(Cl)c(Nc3cc(C4CC4)[nH]n3)n2)s1 [compound 131, 5-(5-Chloro-4-(5-cyclopropyl-1H-pyrazol-3-ylamino)pyrimidin-2-yl)thiophene-2-carboxamide]			1 to 10
